Read-outs that look alike come from different tables or passages of the source.
How the values were obtained:
[1] = test system: MRC-5 cells (healthy lung fibroblast); assay: Cytotoxic analysis (IC50) of adherent cell lines, resazurin: MRC-5; assay type: cell-based; conditions: 24 h incubation, read-out: IC50 ± SD, MRC-5
Protocol: (§1) All adherent cell lines, including healthy lung fibroblast (MRC-5), hepatocellular carcinoma (HepG-2), cervix adenocarcinoma (HeLa), breast adenocarcinoma (MDA-MB-231), prostate carcinoma (DU 145) and suspended chronic myelogenous leukemia (K-562) cells, were cultured in a humidified atmosphere containing 5% CO2 at 37 °C. The cultures were maintained in Dulbecco's Modified Eagle Medium (DMEM) or Roswell Park Memorial Institute (RPMI) 1640 medium (Vitrocell®, Campinas, SP, Brazil) supplemented with 10% fetal bovine serum (FBS), 50 mg/L gentamicin sulfate, and 2 mg/L amphotericin B.
(§2) In these experiments, cells were collected in a solution of trypsin/ethylenediaminetetraacetic acid (EDTA) (Vitrocell®) and centrifuged (252× g for 5 min). The number of cells was counted using a Neubauer chamber (Celeromics, Valencia, Spain) after staining non-viable cells with 0.4% trypan blue solution (Sigma-Aldrich®) via the cell exclusion assay. Then, the cell concentration was adjusted to 7.5 × 10^4 cells/mL in DMEM for tumor cells and MRC-5 cells. Next, a 200 μL suspension was deposited into each well of a 96-well microplate to a cell density of 1.5 × 10^4 cells/well. The cells were incubated at 37 °C in an atmosphere of 5% CO2 for 24 h to allow the cells to attach to the plate. The coordination compounds were solubilized in DMSO to an initial concentration of 10,000 µg/mL. Test solutions of the complexes were prepared to obtain concentrations from 500 to 1.95 μg/mL. The diluted solutions were added to the cells after changing the medium to remove any non-adherent cells, and the cultures were incubated for an additional 24 h. The cytotoxicity of the complexes was determined after incubating the cells in 30 μL of resazurin for approximately 2 h. The measurement was performed using a Synergy H1 microplate reader (BioTek®, Winooski, VT, USA) with excitation and emission filters at wavelengths of 530 and 590 nm, respectively. The assays were performed in three independent experiments.

[2] = test system: HepG2 cells (hepatocellular carcinoma); assay: Cytotoxic analysis (IC50) of adherent cell lines, resazurin: HepG2; assay type: cell-based; conditions: for IC50: HepG2 tumor cells, 24 h incubation, resazurin, read-out: IC50 ± SD, HepG2; for SI (selectivity index), HepG2: IC50 for MRC-5 cells / IC50 for HepG2 cells
Protocol: as §1, §2
(§3) The SI of the complexes was calculated as the ratio of the IC50 for healthy MRC-5 cells to the IC50 for tumor cells. […] Substances with SI values >3 are considered promising.

[3] = test system: HeLa cells (cervix adenocarcinoma); assay: Cytotoxic analysis (IC50) of adherent cell lines, resazurin: HeLa; assay type: cell-based; conditions: for IC50: HeLa tumor cells, 24 h incubation, resazurin, read-out: IC50 ± SD, HeLa; for SI (selectivity index), HeLa: IC50 for MRC-5 cells / IC50 for HeLa cells
Protocol: as §1, §2, §3

[4] = test system: MDA-MB-231 cells (breast adenocarcinoma); assay: Cytotoxic analysis (IC50) of adherent cell lines, resazurin: MDA-MB-231; assay type: cell-based; conditions: for IC50: MDA-MB-231 tumor cells, 24 h incubation, resazurin, read-out: IC50 ± SD, MDA-MB-231; for SI (selectivity index), MDA-MB-231: IC50 for MRC-5 cells / IC50 for MDA-MB-231 cells
Protocol: as §1, §2, §3

[5] = test system: K-562 cells (chronic myelogenous leukemia); assay: Cytotoxic analysis (IC50) of suspended cells, resazurin: K-562; assay type: cell-based; conditions: for IC50: K-562 suspended tumor cells, 24 h incubation, resazurin, read-out: IC50 ± SD, K-562; for SI (selectivity index), K-562: IC50 for MRC-5 cells / IC50 for K-562 cells
Protocol: as §1
In these experiments, cells were centrifuged (252× g for 5 min), and the number of cells was counted using a Neubauer chamber after staining non-viable cells with 0.4% trypan blue solution (Sigma-Aldrich®) via the cell exclusion assay. Then, the cell concentration was adjusted to 2 × 10^5 cells/mL in RPMI 1640 medium. Next, 100 μL of the suspension was deposited into each well of a 96-well microplate to a final cell density of […] [35]. The complexes were dissolved in DMSO to an initial concentration of 10,000 μg/mL. Test solutions of the complexes were prepared to obtain concentrations from 500 to 1.95 μg/mL. The diluted solutions were added to the cells, and the cultures were incubated for 24 h. The cytotoxicity of the complexes was determined after incubating the cells in 30 μL of resazurin for approximately 5 h. The measurement was performed using a Synergy H1 microplate reader (BioTek®, Winooski, VT, USA) with excitation and emission filters at wavelengths of 530 and 590 nm, respectively. The assays were performed in three independent experiments.
as §3

[6] = test system: DU 145 cells (prostate carcinoma); assay: Cytotoxic analysis (IC50) of adherent cell lines, resazurin: DU 145; assay type: cell-based; conditions: for IC50: DU 145 tumor cells, 24 h incubation, resazurin, read-out: IC50 ± SD, DU 145; for SI (selectivity index), DU 145: IC50 for MRC-5 cells / IC50 for DU 145 cells
Protocol: as §1, §2, §3

[7] = test system: BALB/c mice; assay: Quantification of serum AST and ALT enzymatic activity levels; assay type: in vivo; conditions: ANOVA and Dunnett's test
Protocol: To analyze whether there were any biochemical changes in the liver of the animals, we quantified the serum AST and ALT enzymatic activity levels in mice after administration of the complexes via gavage before sacrificing, as described above. A total of 500 µL of blood was collected via the submandibular vein. The blood samples were placed in collection tubes, centrifuged at 1097.6× g for 15 min to separate the serum, and stored at −70 °C. The samples were analyzed on the day of collection.
Enzymatic activity measurements were performed using biochemical diagnostic kits from Labtest S.A. (Labtest S.A., Lagoa Santa, MG, Brazil).
Statistical analysis was performed using GraphPad Prism Version 1.5 software via ANOVA and Dunnett’s test, and p < 0.05 was established as the significance level.

[8] = test system: Artemia salina L.; assay: Artemia salina L. toxicity assay; assay type: in vivo; conditions: ratio of LC50 values to cisplatin
Protocol: To determine toxicity of the Zn^II complexes to brine shrimp, 25 mg of egg (Natal, RN, Brazil) was incubated in a beaker (2000 mL) containing artificial salt water at a temperature ranging from 20 to 30 °C. The artificial salt water consisted of 23 g NaCl, 11 g MgCl2·6H2O, 4 g Na2SO4, 1.3 g CaCl2·H2O, and 0.7 g KCl in 1000 mL distilled water. The pH was adjusted to 9.0 using 5N NaOH to avoid risk of death to the Artemia larvae (nauplii) due to a low pH during incubation.
After 24 hours, 0.6 g of Saccharomyces cerevisiae was added to the beaker per liter of salt water to feed the nauplii; after the eggs were incubated for 48 h, the nauplii were extracted for the experiments.
A 120 µL suspension of 10-15 nauplii was added to each well of a 96-well microplate, including the control wells. The compounds were solubilized in DMSO at 15,000 µg/mL and serially diluted in a separate 96-well microplate. The tested concentrations ranged from 1500 to 5.85 µg/mL. After incubation for 24 h, the plates were examined under a Lupa binocular microscope (X3.0), and the numbers of live nauplii in each well were counted to determine the LC50 [21]. The assays were performed in three independent experiments.

[9] = test system: BALB/c mice; assay: In vivo acute toxicity assay, single oral dose; conditions: single dose 1000 mg/kg body weight via gavage, 14 days, n = 6
Protocol: Female 16–20-week old BALB/c mice weighing 24–26 g were used after utilizing these animals for the bioavailability experiments. […] The mice were maintained in polycarbonate cages at 23 ± 2 °C, 56% ± 2% humidity at a 12-h light/dark cycle under specific-pathogen-free conditions (in a positive-pressure cabinet), and the animals were provided with food and water ad libitum [36].
The safety profile of the complexes to BALB/c mice was evaluated via acute toxicity assays according to protocols established by the OECD using the classical method to measure the acute toxicity (LD50) of a single oral dose (administered via gavage) of the complexes [26].
Each complex was suspended in a sunflower oil vehicle, and the vehicle was used as a control (control group). The complexes were administered as a single dose at 1000 mg/kg body weight via gavage (n = 6 animals/complex). […] The animals were monitored for 14 days, and behavioral parameters (Hippocratic screening) were evaluated.
At the end of the experiment, the animals were weighed, and blood was collected via the submandibular vein. Subsequently, the animals were euthanized in CO2 chambers, and their organs (heart, lungs, right and left kidneys, spleen and liver) were surgically removed, weighed and macroscopically analyzed. […]

[10] = In vivo oral bioavailability test, plasma metal quantified by ICP-OES / ICP-MS; conditions: BALB/c mice, 300 mg/Kg oral gavage
Protocol: Female 4–8-week old BALB/c mice weighing 15–20 g were purchased from the central animal facilities of Campinas State University (UNICAMP, Campinas, SP, Brazil). The mice were maintained in polycarbonate cages at 23 ± 2 °C, 56% ± 2% humidity at a 12 h light/dark cycle under specific pathogen-free conditions (in a positive-pressure cabinet), and the animals were provided with food and water ad libitum. […] The animals (n = 2 animals/complex) received a dose of 300 mg/Kg body weight via oral gavage. At 20 min, 1 h, 2 h, and 4 h after drug administration, blood was drawn from two animals via the retro-orbital veins, draining the submandibular vein and the face of the mice to the point at which the origins of the jugular vein join so that drops of blood exude from the point of penetration. The plasma was separated and stored at −70 °C for quantification.
The metal ion (Zn) concentration was quantified via ICP-OES using a Thermo Scientific Model 6300 system (Thermo Scientific®, San Diego, CA, USA). Samples (50 µL) were diluted 1:100 with a solution containing 0.01% (v/v) Triton X-100 and 0.5% (v/v) nitric acid. During the experiment, the recovery validation test was performed, and this test produced a result of 94%–104% recovery.
For digestion, 50 µL of plasma sample and 5950 µL of double-distilled 20% (v/v) nitric acid were used. The samples were digested in a microwave (Berghof speedwave D 72800, Goshen, NY, USA), reaching a temperature of 170 °C. During the experiment, the recovery validation test was performed, and this test produced a result of 95%–105% recovery.

[11] = Solubility in solvents and vehicle (qualitative); assay type: physicochemical
[12] = test system: Artemia salina L.; parameters: method as in Freitas et al. (2011) [25]; conditions: ref Freitas et al. (2011) [25]; read-out: LC50 against Artemia salina L.; cited from earlier work
[13] = Homo sapiens, MRC5, normal MRC-5 cells

Compound | IC50 ([1]; normal MRC-5 cells) | IC50 [2] | IC50 [3] | IC50 [4] | IC50 [5] | IC50 [6] | SI (selectivity index), HepG2 [2] | SI (selectivity index), MDA-MB-231 [4] | SI (selectivity index), DU 145 [6] | IC50 [1, 13] | IC50 ([2]; Homo sapiens) | IC50 ([3]; Homo sapiens) | IC50 ([4]; Homo sapiens) | IC50 ([5]; Homo sapiens, K562) | IC50 ([6]; Homo sapiens) | SI (selectivity index), HeLa [3] | SI (selectivity index), K-562 [5] | further results
N.N.[Cl][Pt][Cl] [Cisplatin, reference compound] | 46.2 ± 4.9 µM | 60.3 ± 15.1 µM | 85 ± 10.1 µM | 143 ± 3.3 µM | 75.4 ± 6 µM | 56.5 ± 6.8 µM | – | – | – | – | – | – | – | – | – | – | – | serum AST and ALT enzymatic activity levels versus control group [7]: no significant difference
CC(=NN=C([S-])Nc1ccccc1)c1ccccn1.CC(=NN=C([S-])Nc1ccccc1)c1ccccn1.[Zn+2] [Complex 2, [Zn(atc-Ph)2]] | – | – | – | – | – | – | 3.6 | 2.2 | 0.3 | – | – | – | – | – | – | – | – | fold lower toxicity in Artemia salina L. relative to cisplatin [8]: 5.7 fold; mortality [9]: no mortality; maximum plasma concentration (Cmax) [10]: 1191.95 ng/mL; plasma concentration at 20 min ([10]; 20 min, Zn by ICP-OES, relative to control sample): 727.83 ng/mL; plasma concentration at 1 h ([10]; 1 h, Zn by ICP-OES, relative to control sample): 1023.55 ng/mL; plasma concentration at 2 h ([10]; 2 h, Zn by ICP-OES, relative to control sample): 1191.95 ng/mL; plasma concentration at 4 h ([10]; 4 h, Zn by ICP-OES, relative to control sample): 624.70 ng/mL; solubility in organic solvents [11]: reasonably soluble only in dimethyl sulfoxide (DMSO)
CCNC(=S)N/N=C(\C)c1ccccn1 [Hatc-Et] | – | – | – | – | – | – | – | – | – | 9 µM | 553 ± 45 µM | 746 ± 23.2 µM | 904 ± 65.3 µM | 420.3 ± 3.7 µM | 532 ± 12.6 µM | – | – | –
C/C(=N\NC(=S)Nc1ccccc1)c1ccccn1 [Hatc-Ph] | – | – | – | – | – | – | 0.2 | 0.3 | 0.5 | 7.4 µM | 36.3 ± 1.5 µM | 25 ± 0.2 µM | 24.3 ± 5 µM | 11.1 ± 0.6 µM | 15.1 ± 2.1 µM | 0.3 | 0.7 | –
O.O.O.O.O.O.[Cl][Zn][Cl] [ZnCl2·6H2O] | 240 ± 16.8 µM | 698 ± 10.9 µM | 864 ± 14 µM | 475 ± 64.3 µM | 1090 ± 73.8 µM | 383 ± 7.8 µM | 0.3 | 0.5 | 0.6 | – | – | – | – | – | – | 0.3 | 0.2 | –
perchlorate compound of bis(isoniazid) Zn^II hexahydrate | – | – | – | – | – | – | – | – | – | – | – | – | – | – | – | – | – | LC50 [12]: 268 µM

Reference: PMC4881598, “Novel Zinc(II) Complexes [Zn(atc-Et)2] and [Zn(atc-Ph)2]: In Vitro and in Vivo Antiproliferative Studies” (International Journal of Molecular Sciences, 2016)
